In patent publication US20240208992A1, “MACROCYCLES AS CFTR MODULATORS” (Idorsia Pharmaceuticals Ltd, priority 2021, published 2024):
pEC50: −log10 of the molar value.

Target: human F508del-CFTR (Homo sapiens, UniProt P13569, DEL508-508)
Assay: F508del-CFTR cell surface expression (corrector activity), DiscoveRx ß-galactosidase complementation chemiluminescence assay in recombinant U2OS cell line;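 note: U2OS cells co-expressing ProLink-tagged F508del-CFTR and a membrane-anchored enzyme acceptor, where more surface CFTR restores β-galactosidase activity measured by chemiluminescence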
Settings: for pEC50: EC50, F508del-CFTR cell surface expression, U2OS cells, 16h compound incubation, geomean values; for Emax: U2OS, in relation to Emax of corrector lumacaftor (=100%), arithmetic mean values

Sequence of human F508del-CFTR (P13569 with tags, fused parts or gaps DEL508-508): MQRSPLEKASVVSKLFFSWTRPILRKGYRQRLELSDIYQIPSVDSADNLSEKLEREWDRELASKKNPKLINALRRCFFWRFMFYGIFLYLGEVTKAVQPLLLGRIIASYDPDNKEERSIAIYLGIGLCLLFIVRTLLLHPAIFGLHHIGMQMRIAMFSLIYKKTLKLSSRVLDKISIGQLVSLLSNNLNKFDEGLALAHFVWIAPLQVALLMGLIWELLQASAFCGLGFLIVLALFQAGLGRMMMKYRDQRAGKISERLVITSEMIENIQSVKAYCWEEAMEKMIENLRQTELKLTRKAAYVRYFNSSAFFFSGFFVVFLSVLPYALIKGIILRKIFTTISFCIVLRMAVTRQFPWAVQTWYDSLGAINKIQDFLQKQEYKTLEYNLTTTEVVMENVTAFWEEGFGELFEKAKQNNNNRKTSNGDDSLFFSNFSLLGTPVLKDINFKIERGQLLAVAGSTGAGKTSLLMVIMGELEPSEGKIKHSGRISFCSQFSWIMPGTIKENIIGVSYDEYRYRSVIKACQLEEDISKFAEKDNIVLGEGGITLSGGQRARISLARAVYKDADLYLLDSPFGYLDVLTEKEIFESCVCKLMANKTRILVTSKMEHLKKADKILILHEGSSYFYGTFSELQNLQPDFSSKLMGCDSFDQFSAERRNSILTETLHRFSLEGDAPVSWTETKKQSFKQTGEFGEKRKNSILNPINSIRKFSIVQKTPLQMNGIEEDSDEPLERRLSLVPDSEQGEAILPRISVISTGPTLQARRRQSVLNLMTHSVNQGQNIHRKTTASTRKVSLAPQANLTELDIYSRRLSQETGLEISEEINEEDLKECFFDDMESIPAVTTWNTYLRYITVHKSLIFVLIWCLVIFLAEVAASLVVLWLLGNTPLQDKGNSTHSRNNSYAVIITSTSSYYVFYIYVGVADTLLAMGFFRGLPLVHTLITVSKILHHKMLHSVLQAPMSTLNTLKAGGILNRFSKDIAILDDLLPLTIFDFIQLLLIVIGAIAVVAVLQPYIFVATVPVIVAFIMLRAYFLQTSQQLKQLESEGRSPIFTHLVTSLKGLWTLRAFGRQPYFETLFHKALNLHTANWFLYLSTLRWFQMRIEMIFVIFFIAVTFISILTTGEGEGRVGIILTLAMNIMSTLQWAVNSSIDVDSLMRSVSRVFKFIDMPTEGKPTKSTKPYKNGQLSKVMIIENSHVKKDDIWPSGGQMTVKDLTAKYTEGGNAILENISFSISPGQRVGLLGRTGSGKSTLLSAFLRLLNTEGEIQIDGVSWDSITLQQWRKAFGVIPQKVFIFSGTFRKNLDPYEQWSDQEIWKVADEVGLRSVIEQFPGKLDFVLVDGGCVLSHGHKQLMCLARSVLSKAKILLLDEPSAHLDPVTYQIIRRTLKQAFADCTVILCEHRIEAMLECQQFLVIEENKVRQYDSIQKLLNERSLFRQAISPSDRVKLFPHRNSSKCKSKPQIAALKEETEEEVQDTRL

| pEC50 | Emax [%] | SMILES |
| --- | --- | --- |
| 6.52 | 168 | CO[C@H]1C[C@]2(C1)C(=O)N[C@H](Cc1ccccc1)COc1ccc3ccccc3c1C(=O)N[C@H](C(=O)NCCc1ccc(-n3nccn3)cc1)CC(=O)N(C)[C@@H](CC(C)C)C(=O)N2C [Example 492, (1r,3S,3′S,7′S,13′R)-N-(4-(2H-1,2,3-triazol-2-yl)phenethyl)-13′-benzyl-7′-isobutyl-3-methoxy-6′,9′-dimethyl-1′,5′,8′,11′-tetraoxo-2′,3′,4′,5′,6′,7′,8′,9′,11′,12′,13′,14′-dodecahydro-1′H-spiro[cyclobutane-1,10′-naphtho[1,2-p][1]oxa[4,7,10,14]tetraazacycloheptadecine]-3′-carboxamide] |
| 6.16 | 253 | CO[C@H]1C[C@]2(C1)C(=O)N[C@H](Cc1ccccc1)COc1cnc3ccccc3c1C(=O)N[C@H](C(=O)NCCc1ccc(-n3nccn3)cc1)CC(=O)N(C)[C@@H](CC(C)C)C(=O)N2C [Example 493, (1r,3S,3′S,7′S,13′R)-N-(4-(2H-1,2,3-triazol-2-yl)phenethyl)-13′-benzyl-7′-isobutyl-3-methoxy-6′,9′-dimethyl-1′,5′,8′,11′-tetraoxo-2′,3′,4′,5′,6′,7′,8′,9′,11′,12′,13′,14′-dodecahydro-1′H-spiro[cyclobutane-1,10′-[1]oxa[4,7,10,14]tetraazacycloheptadecino[17,16-c]quinoline]-3′-carboxamide] |
| 6.53 | 207 | Cc1cc(CCNC(=O)[C@@H]2CC(=O)N(C)[C@@H](CC(C)C)C(=O)N(C)C3(Cc4ccccc4C3)C(=O)N[C@H](Cc3ccccc3)COc3cnc4ccccc4c3C(=O)N2)on1 [Example 495, (3′S,7′S,13′R)-13′-benzyl-7′-isobutyl-6′,9′-dimethyl-N-(2-(3-methylisoxazol-5-yl)ethyl)-1′,5′,8′,11′-tetraoxo-1,2′,3,3′,4′,5′,6′,7′,8′,9′,11′,12′,13′,14′-tetradecahydro-1′H-spiro[indene-2,10′-[1]oxa[4,7,10,14]tetraazacycloheptadecino[17,16-c]quinoline]-3′-carboxamide] |
| 6.28 | 317 | CC(C)C[C@H]1C(=O)N(C)C2(CC2)C(=O)N[C@H](Cc2ccccc2)COc2cnc3ccccc3c2C(=O)N[C@H](C(=O)NCCc2ccc(-c3ncccn3)cc2)CC(=O)N1C [Example 496, (3′S,7′S,13′R)-13′-benzyl-7′-isobutyl-6′,9′-dimethyl-1′,5′,8′,11′-tetraoxo-N-(4-(pyrimidin-2-yl)phenethyl)-2′,3′,4′,5′,6′,7′,8′,9′,11′,12′,13′,14′-dodecahydro-1′H-spiro[cyclopropane-1,10′-[1]oxa[4,7,10,14]tetraazacycloheptadecino[17,16-c]quinoline]-3′-carboxamide] |
| 6.27 | 171 | CC(C)C[C@H]1C(=O)N2CCCC[C@H]2C(=O)N[C@H](Cc2ccccc2)COc2cnc3c(F)cccc3c2C(=O)N[C@H](C(=O)NCCc2cc(C3CC3)on2)CC(=O)N1C [Example 497, (9S,13S,19aS,22R)-22-benzyl-N-(2-(5-cyclopropylisoxazol-3-yl)ethyl)-3-fluoro-13-isobutyl-12-methyl-7,11,14,20-tetraoxo-7,8,9,10,11,12,13,14,17,18,19,19a,20,21,22,23-hexadecahydro-16H-pyrido[2′,1′:6,7][1]oxa[4,7,10,14]tetraazacycloheptadecino[17,16-c]quinoline-9-carboxamide] |
| 6.72 | 321 | CC(C)C[C@H]1C(=O)N2CCCC[C@@H]2C(=O)N[C@H](Cc2ccccc2)COc2cnc3c(F)cccc3c2C(=O)N[C@H](C(=O)NCCc2cc(C3CC3)no2)CC(=O)N1C [Example 499, (9S,13S,19aR,22R)-22-benzyl-N-(2-(3-cyclopropylisoxazol-5-yl)ethyl)-3-fluoro-13-isobutyl-12-methyl-7,11,14,20-tetraoxo-7,8,9,10,11,12,13,14,17,18,19,19a,20,21,22,23-hexadecahydro-16H-pyrido[2′,11:6,7][1]oxa[4,7,10,14]tetraazacycloheptadecino[17,16-c]quinoline-9-carboxamide] |
| 6.26 | 199 | CC(C)C[C@H]1C(=O)N2CCCC[C@H]2C(=O)N[C@H](Cc2ccccc2)COc2cnc3c(F)cccc3c2C(=O)N[C@H](C(=O)NCCc2cc(C3CC3)no2)CC(=O)N1C [Example 500, (9S,13S,19aS,22R)-22-benzyl-N-(2-(3-cyclopropylisoxazol-5-yl)ethyl)-3-fluoro-13-isobutyl-12-methyl-7,11,14,20-tetraoxo-7,8,9,10,11,12,13,14,17,18,19,19a,20,21,22,23-hexadecahydro-16H-pyrido[2′,1′:6,7][1]oxa[4,7,10,14]tetraazacycloheptadecino[17,16-c]quinoline-9-carboxamide] |
| 6.70 | 308 | CC(C)C[C@H]1C(=O)N2CCCC[C@@H]2C(=O)N[C@H](Cc2ccccc2)COc2cnc3c(F)cccc3c2C(=O)N[C@H](C(=O)NCCc2nc(C3CC3)no2)CC(=O)N1C [Example 501, (9S,13S,19aR,22R)-22-benzyl-N-(2-(3-cyclopropyl-1,2,4-oxadiazol-5-yl)ethyl)-3-fluoro-13-isobutyl-12-methyl-7,11,14,20-tetraoxo-7,8,9,10,11,12,13,14,17,18,19,19a,20,21,22,23-hexadecahydro-16H-pyrido[2′,11:6,7][1]oxa[4,7,10,14]tetraazacycloheptadecino[17,16-c]quinoline-9-carboxamide] |
| 6.12 | 295 | CC(C)C[C@H]1C(=O)N(C)C2(CC2)C(=O)N[C@H](Cc2ccccc2)COc2cnc3ccccc3c2C(=O)N[C@H](C(=O)NCCc2cccc(-c3ncccn3)c2)CC(=O)N1C [Example 502, (3′S,7′S,13′R)-13′-benzyl-7′-isobutyl-6′,9′-dimethyl-1′,5′,8′,11′-tetraoxo-N-(3-(pyrimidin-2-yl)phenethyl)-2′,3′,4′,5′,6′,7′,8′,9′,11′,12′,13′,14′-dodecahydro-1′H-spiro[cyclopropane-1,10′-[1]oxa[4,7,10,14]tetraazacycloheptadecino[17,16-c]quinoline]-3′-carboxamide] |
| 6.83 | 298 | CC(C)C[C@H]1C(=O)N2CCCC[C@@H]2C(=O)N[C@H](Cc2ccccc2)COc2ccc3ncccc3c2C(=O)N[C@H](C(=O)NCCc2cc(C3CC3)on2)CC(=O)N1C [Example 504, (9S,13S,19aR,22R)-22-benzyl-N-(2-(5-cyclopropylisoxazol-3-yl)ethyl)-13-isobutyl-12-methyl-7,11,14,20-tetraoxo-7,8,9,10,11,12,13,14,17,18,19,19a,20,21,22,23-hexadecahydro-16H-pyrido[2′,1′:6,7][1]oxa[4,7,10,14]tetraazacycloheptadecino[16,17-f]quinoline-9-carboxamide] |
| 6.64 | 330 | CC(C)C[C@H]1C(=O)N2CCCC[C@@H]2C(=O)N[C@H](Cc2ccccc2)COc2ccc3ncccc3c2C(=O)N[C@H](C(=O)NCCc2nc(C3CC3)no2)CC(=O)N1C [Example 505, (9S,13S,19aR,22R)-22-benzyl-N-(2-(3-cyclopropyl-1,2,4-oxadiazol-5-yl)ethyl)-13-isobutyl-12-methyl-7,11,14,20-tetraoxo-7,8,9,10,11,12,13,14,17,18,19,19a,20,21,22,23-hexadecahydro-16H-pyrido[2′,1′:6,7][1]oxa[4,7,10,14]tetraazacycloheptadecino[16,17-f]quinoline-9-carboxamide] |
| 6.50 | 211 | CCN1C(=O)C[C@@H](C(=O)NCCc2cc(C)no2)NC(=O)c2c(cnc3ccccc23)OC[C@@H](Cc2ccccc2)NC(=O)[C@H]2CCCCN2C(=O)[C@@H]1CC(C)C [Example 506, (9S,13S,19aR,22R)-22-benzyl-12-ethyl-13-isobutyl-N-(2-(3-methylisoxazol-5-yl)ethyl)-7,11,14,20-tetraoxo-7,8,9,10,11,12,13,14,17,18,19,19a,20,21,22,23-hexadecahydro-16H-pyrido[2′,1′:6,7][1]oxa[4,7,10,14]tetraazacycloheptadecino[17,16-c]quinoline-9-carboxamide] |

| SMILES | pEC50 | Emax [%] |
| --- | --- | --- |
| COc1cccc(CCNC(=O)[C@@H]2CC(=O)N(C)[C@@H](CC(C)C)C(=O)N(C)C3(CC3)C(=O)N[C@H](Cc3ccccc3)COc3ccc4cnccc4c3C(=O)N2)c1 [Example 494, (3′S,7′S,13′R)-13′-benzyl-7′-isobutyl-N-(3-methoxyphenethyl)-6′,9′-dimethyl-1′,5′,8′,11′-tetraoxo-2′,3′,4′,5′,6′,7′,8′,9′,11′,12′,13′,14′-dodecahydro-1′H-spiro[cyclopropane-1,10′-[1]oxa[4,7,10,14]tetraazacycloheptadecino[16,17-f]isoquinoline]-3′-carboxamide] | 6.59 | 295 |
| CC(C)C[C@H]1C(=O)N2CCCC[C@@H]2C(=O)N[C@H](Cc2ccccc2)COc2cnc3c(F)cccc3c2C(=O)N[C@H](C(=O)NCCc2noc(C3CC3)n2)CC(=O)N1C [Example 498, (9S,13S,19aR,22R)-22-benzyl-N-(2-(5-cyclopropyl-1,2,4-oxadiazol-3-yl)ethyl)-3-fluoro-13-isobutyl-12-methyl-7,11,14,20-tetraoxo-7,8,9,10,11,12,13,14,17,18,19,19a,20,21,22,23-hexadecahydro-16H-pyrido[2′,11:6,7][1]oxa[4,7,10,14]tetraazacycloheptadecino[17,16-c]quinoline-9-carboxamide] | 6.70 | 313 |
| COc1cccc(CCNC(=O)[C@@H]2CC(=O)N(C)[C@@H](CC(C)C)C(=O)N(C)C(C)(C)C(=O)N[C@H](Cc3ccccc3)COc3cnc4ccccc4c3C(=O)N2)c1 [Example 503, (3S,7S,13R)-13-benzyl-7-isobutyl-N-(3-methoxyphenethyl)-6,9,10,10-tetramethyl-1,5,8,11-tetraoxo-1,2,3,4,5,6,7,8,9,10,11,12,13,14-tetradecahydro-[1]oxa[4,7,10,14]tetraazacycloheptadecino[17,16-c]quinoline-3-carboxamide] | 6.11 | 137 |
